Results on 2 molecules are retold here after paper PMC3810412 (Bioorganic & medicinal chemistry letters, 2013).

For orientation: Ki means a measure of affinity in units of concentration, obtained from inhibition or displacement. As a reminder, the IC50 is the concentration at which inhibition is half-maximal.

Like-named read-outs stand apart in the source and are kept apart here.

The target in data set [1] is T1, GPI, Substance P induced muscle contraction (Cavia porcellus, UniProt P30547). Nature of the data set: GPI assay, Substance P antagonist. In kind it is cell-based. The conditions noted are these: in the presence of 1 μM naloxone, n = 4.
In a further data set the test system is rodent model. The conditions noted are these: ref 2a, cited from earlier work.
The target in another data set is human NK1 receptors (Homo sapiens, UniProt P25103). The note with it: ratio; ref 3a; cited from earlier work.
Another data set addresses rat NK1 receptors (Rattus norvegicus, UniProt P14600). The note with it: read-out: rNK1 Ki; [3H]Substance P; ref 3a; cited from earlier work.
In a further data set the target is MVD (δ) (Mus musculus, UniProt P32300). The note with it: read-out: MVD (δ) opioid agonist IC50; ref 3a; cited from earlier work.
Data set [2] deals with T1, GPI, Substance P induced muscle contraction. The conditions noted are these: 1 μM naloxone; ref 3a; cited from earlier work.
A further data set concerns the target GPI (μ) (Cavia porcellus, UniProt P97266). The note with it: read-out: GPI (μ) opioid agonist IC50; ref 3a; cited from earlier work.

T1 sequence (P30547 whole entry): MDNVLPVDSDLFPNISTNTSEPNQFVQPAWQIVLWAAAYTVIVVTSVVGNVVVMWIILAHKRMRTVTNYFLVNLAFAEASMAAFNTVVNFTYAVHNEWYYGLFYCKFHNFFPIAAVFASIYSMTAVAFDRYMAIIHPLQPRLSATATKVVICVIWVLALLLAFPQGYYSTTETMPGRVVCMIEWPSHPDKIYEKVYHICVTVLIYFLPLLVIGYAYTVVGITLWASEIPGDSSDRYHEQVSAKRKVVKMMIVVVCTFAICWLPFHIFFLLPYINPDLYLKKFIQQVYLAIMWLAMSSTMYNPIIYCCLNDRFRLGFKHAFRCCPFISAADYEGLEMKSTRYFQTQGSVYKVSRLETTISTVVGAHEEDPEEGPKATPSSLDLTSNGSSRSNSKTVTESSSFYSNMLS
Chain of rat NK1 receptors (P14600 whole entry): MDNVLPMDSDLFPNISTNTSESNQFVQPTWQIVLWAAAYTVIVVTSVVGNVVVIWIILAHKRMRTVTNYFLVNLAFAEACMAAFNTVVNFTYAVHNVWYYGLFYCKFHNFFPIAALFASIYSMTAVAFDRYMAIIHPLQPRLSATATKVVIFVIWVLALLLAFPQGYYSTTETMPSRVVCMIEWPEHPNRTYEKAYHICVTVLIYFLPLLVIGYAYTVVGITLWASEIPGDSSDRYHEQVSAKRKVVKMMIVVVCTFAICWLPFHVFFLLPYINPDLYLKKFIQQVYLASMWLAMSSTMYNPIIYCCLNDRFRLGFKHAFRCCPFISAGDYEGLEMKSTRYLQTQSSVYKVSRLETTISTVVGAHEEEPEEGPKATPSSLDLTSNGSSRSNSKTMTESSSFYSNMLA
Chain of MVD (δ) (P32300 whole entry): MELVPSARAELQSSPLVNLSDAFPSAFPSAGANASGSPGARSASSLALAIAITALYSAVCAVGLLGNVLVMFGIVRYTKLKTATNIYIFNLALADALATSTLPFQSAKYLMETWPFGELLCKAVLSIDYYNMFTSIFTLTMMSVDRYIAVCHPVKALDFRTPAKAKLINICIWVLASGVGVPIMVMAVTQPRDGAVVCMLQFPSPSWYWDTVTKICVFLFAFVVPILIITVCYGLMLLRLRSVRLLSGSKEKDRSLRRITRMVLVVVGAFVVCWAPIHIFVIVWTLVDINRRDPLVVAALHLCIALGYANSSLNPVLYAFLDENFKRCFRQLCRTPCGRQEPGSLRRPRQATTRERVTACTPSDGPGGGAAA
Chain of human NK1 receptors (P25103 whole entry): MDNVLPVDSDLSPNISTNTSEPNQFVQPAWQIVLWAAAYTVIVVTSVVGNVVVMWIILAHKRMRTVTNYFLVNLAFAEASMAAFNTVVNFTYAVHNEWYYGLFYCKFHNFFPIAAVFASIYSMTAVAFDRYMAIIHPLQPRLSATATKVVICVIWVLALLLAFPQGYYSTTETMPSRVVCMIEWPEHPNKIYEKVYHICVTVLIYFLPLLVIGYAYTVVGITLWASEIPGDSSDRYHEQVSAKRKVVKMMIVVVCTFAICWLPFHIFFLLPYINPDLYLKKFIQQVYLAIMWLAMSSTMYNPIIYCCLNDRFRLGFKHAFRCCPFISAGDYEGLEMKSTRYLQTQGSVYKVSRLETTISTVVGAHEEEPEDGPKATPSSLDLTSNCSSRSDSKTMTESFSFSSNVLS

Regarding `CC(=O)N[C@@H](Cc1c[nH]c2ccccc12)C(=O)OCc1cc(C(F)(F)F)cc(C(F)(F)F)c1` [L-732,138], in data set [1], the “GPI Substance P antagonist Ke” value was 250 nM.

With “Tyr^1-DAla^2-Gly^3-Phe^4-Met^5-Pro^6-Leu^7-Trp^8-O-[3′,5′-Bzl(CF3)2] [compound 1]”, in the data set with rodent model, the opioid-induced tolerance entry is recorded as “no sign of opioid-induce tolerance” and the reward liability entry is reported as “no development of reward liability”. In the data set on rodent model (rodent model), the “effect on neuropathic pain” value is “reverse neuropathic pain”. Further, on human NK1 receptors, the “Ki(hNK1)/Ki(rNK1)” value is given as 3.5. The inhibition constant (Ki) with rat NK1 receptors is 0.00029 µM. Also, the IC50 with MVD (δ) was 0.022 µM. The “GPI Substance P antagonist Ke” value in data set [2] is 25 nM. In addition, the IC50 in the data set with GPI (μ) is 0.36 µM.
